Some test systems named below: SF-539 CNS; RPMI-8226 leukemia; SF-268 CNS; UO-31 renal; SK-MEL-28 melanoma; HOP-92 NSCLC; SK-MEL-5 melanoma; SW-620 colon; UACC-257 melanoma; CCRF-CEM leukemia.
What all share (test): NCI-60 cell line screen, 48 h

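Cultured in 96-well plates, cells were exposed to test compound for 48 hours across five concentrations. GI50 marks 50% less growth. TGI denotes the concentration required for complete inhibition of growth.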

Turning to `O=C(O)Cn1ccc2ccccc21`, the GI50 in the experiment on SF-539 CNS, in the experiment with RPMI-8226 leukemia, in the experiment on SF-268 CNS, with UO-31 renal, with SK-MEL-28 melanoma and with SK-MEL-5 melanoma was more than 100 µM throughout. Further, the GI50 in the experiment with SW-620 colon, in the experiment with UACC-257 melanoma and in the experiment with CCRF-CEM leukemia was more than 100 µM each time. Besides, the TGI in the experiment with SF-539 CNS, with RPMI-8226 leukemia, in the experiment with SF-268 CNS, with UO-31 renal, with SK-MEL-28 melanoma and in the experiment on HOP-92 NSCLC was more than 100 µM each time. Besides, the TGI in the experiment on SK-MEL-5 melanoma, in the experiment with SW-620 colon, in the experiment with UACC-257 melanoma and in the experiment with CCRF-CEM leukemia was more than 100 µM throughout.

On to `CC(C)(C)c1nc(-c2cccc(NS(=O)(=O)c3c(F)cccc3F)c2F)c(-c2ccnc(N)n2)s1`, for which the GI50 in the experiment on SF-539 CNS was 39.2 µM; in the experiment on RPMI-8226 leukemia it was 24.1 µM; with SF-268 CNS, 51 µM; in the experiment with UO-31 renal it was 0.46 µM; with SK-MEL-28 melanoma, less than 0.01 µM; in the experiment on HOP-92 NSCLC it was 35.5 µM. For the same compound, the GI50 with SK-MEL-5 melanoma is 0.0129 µM; in the experiment on SW-620 colon, 23.9 µM; in the experiment with CCRF-CEM leukemia, 21.7 µM. For the same compound, the TGI in the experiment on SF-539 CNS was more than 100 µM; with RPMI-8226 leukemia it was 97 µM; in the experiment on SF-268 CNS, more than 100 µM; in the experiment on UO-31 renal it was more than 100 µM; in the experiment on SK-MEL-28 melanoma it was more than 100 µM; in the experiment on HOP-92 NSCLC it was more than 100 µM. For the same compound, the TGI with SK-MEL-5 melanoma was more than 100 µM; with SW-620 colon, more than 100 µM; in the experiment with CCRF-CEM leukemia it was more than 86.2 µM.

For the compound `O=C1Nc2ccccc2/C1=C/c1cn(CC(O)Cn2cc(/C=C3\C(=O)Nc4ccccc43)c3ccccc32)c2ccccc12` (stereo unspecified), the GI50 with SF-539 CNS was 1.55 µM; in the experiment on RPMI-8226 leukemia it was 2.1 µM; in the experiment with SF-268 CNS, 1.75 µM; in the experiment on UO-31 renal, 1.29 µM; in the experiment with SK-MEL-28 melanoma, 1.77 µM; in the experiment with HOP-92 NSCLC, 1.8 µM. In addition, the GI50 is 1.98 µM in the experiment on SK-MEL-5 melanoma, 1.34 µM in the experiment with SW-620 colon, 2.35 µM in the experiment on UACC-257 melanoma and 2.84 µM in the experiment with CCRF-CEM leukemia. In addition, the TGI in the experiment with SF-539 CNS came to 3.11 µM; in the experiment with RPMI-8226 leukemia it was 5.41 µM; with SF-268 CNS it was 3.92 µM; in the experiment on UO-31 renal, 2.94 µM; in the experiment with SK-MEL-28 melanoma, 3.5 µM; with HOP-92 NSCLC, 4.15 µM. Moreover, the TGI stood at 3.82 µM in the experiment with SK-MEL-5 melanoma, 3.48 µM in the experiment with SW-620 colon, 4.44 µM with UACC-257 melanoma and 13.4 µM with CCRF-CEM leukemia.

`COc1ccc(-c2nn3ncccc3c2-c2ccnc(Nc3ccc4c(c3)OCCO4)n2)cc1`: the GI50 in the experiment on SF-539 CNS is 13 µM; with RPMI-8226 leukemia, 4.69 µM; with SF-268 CNS it was 11.1 µM; with UO-31 renal it was 2.19 µM; with SK-MEL-28 melanoma, 16.9 µM; in the experiment with HOP-92 NSCLC, 0.521 µM. The GI50 in the experiment with SK-MEL-5 melanoma was 6.26 µM; with SW-620 colon, 14.4 µM; with UACC-257 melanoma, 9.07 µM; with CCRF-CEM leukemia, 6.07 µM. The TGI with SF-539 CNS is more than 25 µM; in the experiment on RPMI-8226 leukemia it was more than 20.7 µM; in the experiment on SF-268 CNS, more than 25 µM; in the experiment with UO-31 renal, 16.7 µM; in the experiment with SK-MEL-28 melanoma, more than 25 µM; with HOP-92 NSCLC, 10.6 µM. Also, the TGI with SK-MEL-5 melanoma, with SW-620 colon, in the experiment on UACC-257 melanoma and in the experiment on CCRF-CEM leukemia was more than 25 µM in each case.

Regarding `O=C1C=C(Nc2ccc(S(=O)(=O)Nc3ncccn3)cc2)c2ccccc2C1=O`, the TGI stood at 58.4 µM with SF-539 CNS; 97.2 µM with RPMI-8226 leukemia; 59.7 µM in the experiment on SF-268 CNS; 57.5 µM in the experiment with UO-31 renal; 60.6 µM in the experiment on SK-MEL-28 melanoma; 94 µM in the experiment on HOP-92 NSCLC. Besides, the TGI in the experiment on SK-MEL-5 melanoma was 32.9 µM; in the experiment on SW-620 colon, 35.1 µM; in the experiment on UACC-257 melanoma, 41.7 µM; in the experiment on CCRF-CEM leukemia, more than 100 µM.

For the compound `NC(CSC(c1ccccc1)(c1ccccc1)c1ccc(F)cc1)C(=O)O` (stereo unspecified), the GI50 is 0.285 µM with SF-539 CNS; 0.279 µM in the experiment with RPMI-8226 leukemia; 0.505 µM in the experiment with SF-268 CNS; 14.1 µM in the experiment on UO-31 renal; 6.04 µM in the experiment with SK-MEL-28 melanoma; 0.701 µM in the experiment with HOP-92 NSCLC. The GI50 with SK-MEL-5 melanoma is 0.382 µM; in the experiment with SW-620 colon, 0.43 µM; in the experiment on UACC-257 melanoma, 0.635 µM; in the experiment on CCRF-CEM leukemia, 0.289 µM. The TGI was 0.921 µM in the experiment on SF-539 CNS; 12.7 µM in the experiment with RPMI-8226 leukemia; 35.1 µM with SF-268 CNS; more than 100 µM in the experiment on UO-31 renal; more than 100 µM with SK-MEL-28 melanoma; 29.3 µM in the experiment on HOP-92 NSCLC. In addition, the TGI in the experiment on SK-MEL-5 melanoma is more than 70.9 µM; in the experiment on SW-620 colon, more than 100 µM; with UACC-257 melanoma, more than 100 µM; in the experiment on CCRF-CEM leukemia, more than 100 µM.

Turning to `CCCCCCCCCCOC(=O)c1cc[n+](C)cc1`, the TGI was 29.8 µM in the experiment on SF-539 CNS; 38.2 µM in the experiment on RPMI-8226 leukemia; 35.3 µM with SF-268 CNS; 30.3 µM with UO-31 renal; 31.3 µM in the experiment on SK-MEL-28 melanoma; 29.2 µM in the experiment on HOP-92 NSCLC. Moreover, the TGI in the experiment on SK-MEL-5 melanoma was determined as 33.6 µM; in the experiment on SW-620 colon, 34.5 µM; in the experiment with UACC-257 melanoma, 34 µM; with CCRF-CEM leukemia, 37.7 µM.

As for `C/C(CC(=O)Nc1ccc(NC(=O)C/C(C)=N\NC(N)=O)cc1)=N/NC(N)=O`, the TGI in the experiment with SF-539 CNS is more than 100 µM; in the experiment with RPMI-8226 leukemia, 55.5 µM; with SF-268 CNS, more than 100 µM; in the experiment with UO-31 renal, more than 100 µM; with SK-MEL-28 melanoma, more than 100 µM; with HOP-92 NSCLC, more than 100 µM. The TGI in the experiment on SK-MEL-5 melanoma, in the experiment on SW-620 colon, in the experiment on UACC-257 melanoma and with CCRF-CEM leukemia was more than 100 µM throughout.

Consider `CCN(CC)c1ccc(N=Nc2ccc(-c3nc4cccn(C)c-4n3)cc2)cc1`, for which the TGI was found to be 25.8 µM in the experiment on SF-539 CNS; 7.07 µM with RPMI-8226 leukemia; 50.1 µM in the experiment on SF-268 CNS; 41 µM with UO-31 renal; 33 µM in the experiment on HOP-92 NSCLC; 16.8 µM with SK-MEL-5 melanoma. In addition, the TGI in the experiment on SW-620 colon turned out to be 22.9 µM; with UACC-257 melanoma it was 42.3 µM; with CCRF-CEM leukemia, 19.8 µM.

Source of the values: PubChem BioAssay (NCI).
